Measurements reported in patent publication US8592405B2, “Synergistic antimicrobial composition” (Dow Global Technologies LLC, priority 2009, dated 2013).
Values joined by “and” are separate entries in the source; they are usually repeats but may differ in a detail not shown here. Equal entries are not always repeated.

What was measured:
Format in all cases: cell-based
[1] = system: Cp + To + Ta (Calotrix parientina, Trentepohlia odorata, Trentepohlia aurea); assay: Algal efficacy testing, modified ASTM 5589 (6-well, mixed inoculum, Example 4); settings: four weeks; for Total conc, ppm: Cp + To + Ta mixed inoculum, NE = no end point at the concentration tested; for % inhibition: Cp + To + Ta, at the Total conc
Experimental: (§1) A single or blend of biocides was post added into white acrylic latex paint free of biocides to give a maximum total active ingredient/s concentration tested. This paint was then diluted with a biocide free acrylic latex paint at concentrations range of 75 to 12.5% w/w to give desired concentrations for the testing. Depending on the type of biocide blends tested, the total biocides concentrations varies from 200 to 5000 ppm. After biocides addition or dilution each sample was hand mixed for at least a minute until uniformity is achieved. Each of the paint samples as well as a control sample (containing no biocide) were used to prepare films on black plastic-vinyl chloride/acetate copolymer panels (LENETA, Mahwah, N.J.) using a 3 mil bird bar applicator. The panels were thoroughly dried for at least 2 days avoiding direct exposure to sunlight. Square discs (0.5 inch^2, 13 mm^2) were cut out from each panel and were used as the substrate for fungal and algal efficacy tests. This sample size allowed for an agar border when the sample disc was placed into the well of the test plate. Each sample was tested in duplicate
(§2) The appropriate media (BOLD'S 3N for Chlorophytes, BG-11 for Cyanobacteria, and PDA for fungi) were used to support microbial growth. The test plates were maintained at room temp (25° C.-26° C.), in a cycled light-dark environment, for four weeks for algae. Plates for fungal challenge tests were maintained at 30 C for four weeks. At the end of the incubation period the samples were scored for percent area covered by visible microbial growth.
(§3) ASTM 5589 is a standard accelerated test method for determining resistance of various coatings (including paints) to algal defacement. To accommodate for high-throughput screening, this method was scaled down from petri plates to 6-well plates. A single coupon was placed with a pair of sterile forceps at the center of the agar plug (on top) with the painted surface facing upwards. Algal inoculums were prepared by mixing equal concentrations (1×10^6 cfu/ml) and equal volumes (depending on number of samples to be inoculated) of like growing organisms. In this study, Gloeocapsa sp. and Oscillatoria sp. were a mix of cyanobacteria grown on BG-11 media. Chlorella sp., Chlorella kessleri, and Nostoc commune are unicellular chlorphytes that were mixed and grown on Bold media. Trentepohlia aurea, Trentepohlia odorata, and Calotrix parientina are filamentous algae that were mixed and grown on Bold media. Each well was inoculated with 400 μl of organism mixture (1×10^6 cfu/ml) making sure that the whole surface (paint film as well as the agar surrounding it) was evenly covered. The plates were incubated at room temp (25° C.-26° C.) with cyclic exposure to light (OTT-Lite model #OTL4012P, 40 Watt, 26 KLumen) and dark phases, for a period of four weeks. The total area covered was evaluated at the end of each week according to percent area covered in 5% increments. While rating the plates, notations were made for zones of inhibition.

[2] = system: Gs + Os (Gloeocapsa sp. + Oscillatoria sp.); assay: as above; settings: four weeks; for Total conc, ppm: Gs + Os mixed inoculum, NE = no end point at the concentration tested; for % inhibition: Gs + Os, at the Total conc
Experimental: as §1, §2, §3

[3] = system: Cs + Ck + Nc (Chlorella sp., Chlorella kessleri, Nostoc commune); assay: as above; settings: four weeks; for Total conc, ppm: Cs + Ck + Nc mixed inoculum, NE = no end point at the concentration tested; for % inhibition: Cs + Ck + Nc, at the Total conc
Experimental: as §1, §2, §3

[4] = system: An + Pf (Aspergillus niger + Penicillium funiculosum); assay: Fungal efficacy testing, modified ASTM 5590 (6-well, mixed inoculum, Example 4); settings: four weeks; for Total conc, ppm: An + Pf mixed inoculum, NE = no end point at the concentration tested; for % inhibition: An + Pf, at the Total conc
Experimental: (§4) The SI is calculated based on F. C. Kull et.
as §1, §2
(§5) ASTM 5590 is a standard accelerated test method for determining resistance of various coatings (including paints) to fungal defacement. To accommodate for high-throughput screening, this method was scaled down from petri plates to 6-well plates. To set up the test, an agar plug was placed at the bottom of each well of the sterile 6-well plate. A single coupon was placed with a pair of sterile forceps at the center of the agar plug (on top) with the painted surface facing upwards. Fungal inoculums were prepared by mixing equal concentrations (1×10^6 cfu/ml) and equal volumes (depending on number of samples to be tested) of like growing organisms. Cladosporium herbarum was mixed with Aureobasidium pullulans. Aspergillus niger was mixed with Penicillium funiculosum. Alternaria alternata was mixed with Trichoderma viride. Each well was inoculated with 400 μl of organism mixture (1×10^6 cfu/ml) making sure that the whole surface (paint film as well as the agar surrounding it) was evenly covered. The plates were incubated at 30° C. in presence of moisture, for a period of four weeks. The total percent area covered was evaluated and recorded at the end of each week after the 2nd week and recorded in increments of 5%.

[5] = system: Aa + Ap (Alternaria alternata + Aureobasidium pullulans); assay: as above; settings: four weeks; for Total conc, ppm: Aa + Ap mixed inoculum, NE = no end point at the concentration tested; for % inhibition: Aa + Ap, at the Total conc
Experimental: [The source words this procedure for another target and reports this target under the same test.] as §4, §1, §2, §5

Aspergillus niger (An) = assay: Fungal efficacy testing, modified ASTM 5590 (12-well, dry paint film); settings: three weeks
Experimental: (§6) Samples of white acrylic latex paint free of biocides were prepared in 50 ml aliquots. Each biocide was post added to give the necessary active ingredient concentration in the paint. The total biocides concentrations tested were 750, 1500, 2500 and 5000 ppm. After biocides addition, each sample was hand mixed for a minimum of 30 sec, followed by a 3 min run on the paint shaker (RED DEVIL). Each of the paint samples as well as a control sample (containing no biocide) were used to prepare films on black plastic-vinyl chloride/acetate copolymer panels (LENETA, Mahwah, N.J.) using a 3 mil bird bar applicator. The panels were thoroughly dried for 5 days avoiding direct exposure to sunlight. Square discs (15 mm^2) were cut out from each panel and were used as the substrate for fungal and algal efficacy tests. This sample size allowed for an agar border when the sample disc was placed into the well of the test plate.
(§7) The appropriate media (BOLD'S 3N for Chlorophytes, BG-11 for Cyanobacteria, and PDA for fungi) were used to support microbial growth. The test plates were maintained at room temp (25° C.-26° C.), in a cycled light-dark environment, for 3 weeks for algae. Plates for fungal challenge tests were maintained at 30C for three weeks. At the end of incubation period the samples were scored for percent area covered by visible microbial growth.
as §5, with “12-well” for “6-well”, “upwards.” for “upwards. Fungal inoculums were prepared by mixing equal concentrations (1×10^6 cfu/ml) and equal volumes (depending on number of samples to be tested) of like growing organisms. Cladosporium herbarum was mixed with Aureobasidium pullulans. Aspergillus niger was mixed with Penicillium funiculosum. Alternaria alternata was mixed with Trichoderma viride.”, “150” for “400”, “organism” for “organism mixture”, “three” for “four”, “5%. […]” for “5%.”

[6] = system: Stachybotris chartarum (Sc); assay: as above; settings: three weeks
Experimental: as §6, §7
as §5, with “12-well” for “6-well”, “upwards.” for “upwards. Fungal inoculums were prepared by mixing equal concentrations (1×10^6 cfu/ml) and equal volumes (depending on number of samples to be tested) of like growing organisms. Cladosporium herbarum was mixed with Aureobasidium pullulans. Aspergillus niger was mixed with Penicillium funiculosum. Alternaria alternata was mixed with Trichoderma viride.”, “150” for “400”, “organism” for “organism mixture”, “three” for “four”
as §4

[7] = system: Cladosporium herbarum (Ch); assay: as above; settings: at the Total conc, three weeks
Experimental: as §6, §7
as §5, with “12-well” for “6-well”, “upwards.” for “upwards. Fungal inoculums were prepared by mixing equal concentrations (1×10^6 cfu/ml) and equal volumes (depending on number of samples to be tested) of like growing organisms. Cladosporium herbarum was mixed with Aureobasidium pullulans. Aspergillus niger was mixed with Penicillium funiculosum. Alternaria alternata was mixed with Trichoderma viride.”, “150” for “400”, “organism” for “organism mixture”, “three” for “four”
as §4

[8] = system: Aureobasidium pullulans (Ap); assay: as above; settings: at the Total conc, three weeks
Experimental: as §6, §7
as §5, with “12-well” for “6-well”, “upwards.” for “upwards. Fungal inoculums were prepared by mixing equal concentrations (1×10^6 cfu/ml) and equal volumes (depending on number of samples to be tested) of like growing organisms. Cladosporium herbarum was mixed with Aureobasidium pullulans. Aspergillus niger was mixed with Penicillium funiculosum. Alternaria alternata was mixed with Trichoderma viride.”, “150” for “400”, “organism” for “organism mixture”, “three” for “four”
as §4

[9] = system: Penicillium funiculosum (Pf); assay: as above; settings: at the Total conc, three weeks
Experimental: as §6, §7
as §5, with “12-well” for “6-well”, “upwards.” for “upwards. Fungal inoculums were prepared by mixing equal concentrations (1×10^6 cfu/ml) and equal volumes (depending on number of samples to be tested) of like growing organisms. Cladosporium herbarum was mixed with Aureobasidium pullulans. Aspergillus niger was mixed with Penicillium funiculosum. Alternaria alternata was mixed with Trichoderma viride.”, “150” for “400”, “organism” for “organism mixture”, “three” for “four”
as §4

Trichoderma viride (Tv) = assay: as above; settings: three weeks
Experimental: as §6, §7
as §5, with “12-well” for “6-well”, “upwards.” for “upwards. Fungal inoculums were prepared by mixing equal concentrations (1×10^6 cfu/ml) and equal volumes (depending on number of samples to be tested) of like growing organisms. Cladosporium herbarum was mixed with Aureobasidium pullulans. Aspergillus niger was mixed with Penicillium funiculosum. Alternaria alternata was mixed with Trichoderma viride.”, “150” for “400”, “organism” for “organism mixture”, “three” for “four”
as §4

[10] = system: Alternaria alternata (Aa); assay: as above; settings: at the Total conc, three weeks
Experimental: as §6, §7
as §5, with “12-well” for “6-well”, “upwards.” for “upwards. Fungal inoculums were prepared by mixing equal concentrations (1×10^6 cfu/ml) and equal volumes (depending on number of samples to be tested) of like growing organisms. Cladosporium herbarum was mixed with Aureobasidium pullulans. Aspergillus niger was mixed with Penicillium funiculosum. Alternaria alternata was mixed with Trichoderma viride.”, “150” for “400”, “organism” for “organism mixture”, “three” for “four”
as §4

[11] = system: Trentepohlia aurea + Trentepohlia odorata (Ta + To); assay: Algal efficacy testing, modified ASTM 5589 (12-well, dry paint film); settings: three weeks
Experimental: as §6, §7
(§8) ASTM 5589 is a standard accelerated test method for determining resistance of various coatings (including paints) to algal defacement. To accommodate for high-throughput screening, this method was scaled down from petri plates to 12-well plates. A single coupon was placed with a pair of sterile forceps at the center of the agar plug (on top) with the painted surface facing upwards. Each well was inoculated with 150 μl of organism (1×10^8 cfu/ml) making sure that the whole surface (paint film as well as the agar surrounding it) was evenly covered. The plates were incubated at room temp (25° C.-26° C.) with cyclic exposure to light (OTT-Lite model #OTL4012P, 40 Watt, 26 KLumen) and dark phases, for a period of three weeks. The total area covered was evaluated at the end of each week according to percent area covered in 5% increments. While rating the plates, notations were made for zones of inhibition.
as §4

Gleocapsa sp. (Gs) = assay: as above; settings: at the Total conc, three weeks
Experimental: as §6, §7, §8, §4

[12] = system: Chlorella sp. + Chlorella kessleri (Cs + Ck); assay: as above; settings: at the Total conc, three weeks
Experimental: as §6, §7, §8, §4

Nostoc commune (Nc) = assay: as above; settings: three weeks
Experimental: as §6, §7, §8, §4

[13] = system: Calothrix parientina (Cp); assay: as above; settings: three weeks
Experimental: as §6, §7, §8, §4

Oscillatoria sp. (Os) = assay: as above; settings: at the Total conc, three weeks
Experimental: as §6, §7, §8, §4

[14] = system: Ch + Tv (Cladosporium herbarum + Trichoderma viride); assay: Fungal efficacy testing, modified ASTM 5590 (6-well, mixed inoculum, Example 4); settings: four weeks; for Total conc, ppm: Ch + Tv mixed inoculum, NE = no end point at the concentration tested; for % inhibition: Ch + Tv, at the Total conc
Experimental: [The source words this procedure for another target and reports this target under the same test.] as §4, §1, §2, §5

[15] = total biocide in paint taken as minimum inhibitory concentration, 30 C
[16] = total biocide in paint taken as minimum inhibitory concentration

Molecule	Total conc, ppm [1] [ppm]	% inhibition [1] [%]	Total conc, ppm [2] [ppm]	% inhibition [2] [%]	Total conc, ppm [3] [ppm]	% inhibition [3] [%]	Total conc, ppm [4] [ppm]	% inhibition [4] [%]	Total conc, ppm [5] [ppm]	% inhibition [5] [%]	Total conc, ppm [14] [ppm]	% inhibition [14] [%]	further results
zinc pyrithione [ZPT]	625	100	625	100	1250	100	1250	100	2500	100			
CCCCNC(=O)OCC#CI [IPBC, 3-iodo-2-propynyl-butylcarbamate]													% inhibition (Aspergillus niger (An); at the Total conc): 87.5% and 80% and 75%; Total conc, ppm (Aspergillus niger (An); [15]): 2500 ppm and 1500 ppm; % inhibition ([6]; at the Total conc): 82.5%; Total conc, ppm [6, 15]: 2500 ppm; % inhibition [7]: 75% and 80%; % inhibition [8]: 97.5% and 60% and 87.5%; % inhibition [9]: 97.5% and 60% and 70%; % inhibition (Trichoderma viride (Tv); at the Total conc): 90% and 72.5% and 62.5%; Total conc, ppm (Trichoderma viride (Tv); [15]): 750 ppm and 1500 ppm; % inhibition [10]: 97.5% and 50% and 100%; % inhibition ([11]; at the Total conc): 85% and 82.5% and 72.5%; Total conc, ppm [11, 16]: 2500 ppm and 1500 ppm; % inhibition (Gleocapsa sp. (Gs)): 95% and 50% and 80%; % inhibition [12]: 97.5% and 90% and 70%; % inhibition (Nostoc commune (Nc); at the Total conc): 87.5% and 90% and 80%; Total conc, ppm (Nostoc commune (Nc); [16]): 1500 ppm and 2500 ppm; % inhibition ([13]; at the Total conc): 97.5% and 90% and 80%; Total conc, ppm [13, 16]: 2500 ppm and 5000 ppm; % inhibition (Oscillatoria sp. (Os)): 70% and 62.5% and 77.5%
CCCCCCCCn1sccc1=O [OIT, 2-n-octyl-4-isothiazolin-3-one]	1350	95	1350	100	1350	100	450	100	1350	100	450	50	
c1ccc2[nH]c(-c3cscn3)nc2c1 [TBZ, thiabendazole]	1875	95	1875	100	1250	100	625	100	3750	80	2500	50	
